The target of assay [1] is T1, C5aR (Homo sapiens (Human), UniProt P21730). Nature of the assay: Inhibition of C5a-C5aR binding determined by cell migration assay (U937/C5aR cells). Type of assay: cell-based. Conditions: U937/C5aR cell migration towards human C5a, 180 min. A digest of the protocol: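 Transwell migration through 3.0 µm pores: U937/C5aR cells in HBSS + 1% FBS were premixed with compound, with human C5a plus compound in the bottom well. After 30 min preincubation, cells migrated 180 min at 37 °C. Migrated cells were quantified by CellTiter-Glo luminescence.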

Assay [2] deals with T1, C5aR. The experiment in a line: Calcium mobilization (U937/C5aR or HEK293/C5aR cells, FLIPR). Type of assay: cell-based. The conditions noted are these: agonist human C5a at EC80, FLIPR. In short, it runs like this: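 U937 or HEK293 cells expressing human C5aR, plated overnight, then preincubated 60 min with compound. After Fluo-4 Direct dye loading (50 min at 37 °C, 10 min at room temperature), intracellular calcium rise on FLIPR was triggered by human C5a agonist at EC80.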

The subject of assay [3] is C5a induced CD11b upregulation on granulocytes. The experiment in a line: Neutrophil CD11b FACS assay, cyno monkey whole blood after oral pre-dosing. Type of assay: in vivo. The conditions noted are these: oral pre-dosing at 10 mg/kg; for EC50 at 10 mg/kg: Macaca fascicularis, Neutrophil, read-out: EC50 (C5a induced CD11b upregulation on granulocytes ex-vivo). On the procedure: (§1) Peripheral blood samples were collected from Cynomolgus monkey/huC5aR knock-in mice at indicated timepoints. 100 μl aliquots were mixed with a range of C5a concentrations and incubated at 37° C. for 30 min. Blood was cooled down on wet ice for at least 3 min, anti-CD11b monoclonal antibody (BD Biosciences) was added and incubated at 4° C. for 60 min. Red blood cells were lysed by adding erythrocyte lysis buffer (Solarbio) and incubated on ice for 10 min, white blood cells were washed by pre-cold PBS twice and suspended by 2% PFA/PBS buffer. Neutrophils were classified with flow cytometry by their forward/side-scatter properties and mean fluorescence intensity of anti-CD11b staining on cells was read by FACS (Beckman).
The percent of CD11b signal was calculated by the formula %=(MFI[C5a conc.]-MFI[C5a=0])/(MFI[max]-MFI[C5a=0])×100%. Each data point was the average of 2 individual monkeys. The plasma concentration of each compound is the average concentration prior to C5a injection of 2 individual monkeys.
In general terms: A flow cytometer gives signals particle by particle.

Assay [4] concerns C5a induced CD11b upregulation on neutrophil. The experiment in a line: Neutrophil CD11b FACS assay, human C5aR knock-in mice whole blood after oral pre-dosing. Type of assay: in vivo. The conditions noted are these: oral pre-dosing 0.3 mg/kg and 3 mg/kg. How it is done:
as §1
Whole blood was collected at indicated timepoints (2 hours or 12 hours after dosing compound) and further stimulated with human C5a in vitro. CD11b FACS antibody was added and incubate for 60 min at 4 C before red blood cells were lysed. The percent of CD11b signal was calculated by the formula %=(MFI[C5a conc.]-MFI[C5a=0])/(MFI[max]-MFI[C5a=0])×100%. Each data point was the average SD of 3 individual mice.
Whole blood was collected at 2 hrs after dosing compound and further stimulated with human C5a in vitro. CD11b FACS antibody was added and incubate for 60 min at 4 C before red blood cells were lysed. The percent of CD11b signal was calculated by the formula %=(MFI[C5a conc.]-MFI[C5a=0])/(MFI[max]-MFI[C5a=0])×100%. Each data point was the average of 2 individual mice.
Whole blood was collected at 2 hrs after dosing compound and further stimulated with human C5a in vitro. CD11b FACS antibody was added and incubate for 60 min at 4 C before red blood cells were lysed. The percent of CD11b signal was calculated by the formula %=(MFI[C5a conc.]-MFI[C5a=0])/(MFI[max]-MFI[C5a=0])×100%. Each data point was the average±SD of 2 individual mice.

In assay [5] the test system is human C5a (hC5a) induced neutropenia. Nature of the assay: C5a induced neutropenia in a cynomolgus model. The conditions noted are these: cynomolgus monkey, pre-dosed 4 hours before hC5a, compared to vehicle. Type of assay: in vivo. On the procedure:
To study the efficacy of compounds in a non-human primate model, human C5a (hC5a) induced neutropenia is studied in a cynomolgus model. Intravenous injection of hC5a induced upregulation of adhesion molecules on blood vessel walls, leading to decreased neutrophils in the blood stream and attached to the vascular walls. Monkeys were pre-dosed with vehicle or specific compound, and 4 hours later, hC5a ([…], ACROBiosystems) was administrated and 1 minute later neutrophils are quantified in peripheral blood.
The percent change in the number of neutrophils in the blood collected after C5a injection (241 min) was calculated relative to the sample collected prior to C5a injection (239 min). The plasma concentration of each compound was calculated as the average concentration prior to C5a injection of 2 individual monkeys.

Assay [6] concerns the target human C5a receptor (C5aR) (Homo sapiens (Human), UniProt P21730). The experiment in a line: Inhibition of C5a-C5aR binding (biotinylated human C5a, U937/C5aR cells, FACS). A digest of the protocol:
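U937 cells stably expressing human C5aR, 3×10^6 cells/ml in PBS+0.1% BSA, were co-incubated with compound and biotinylated human C5a (30 nM, working solution) on ice for 120 min. Bound ligand was stained with FITC-streptavidin for 30 min on ice and read by flow cytometry.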

The test system of assay [7] is human C5a induced neutropenia. Nature of the assay: C5a induced neutropenia in human C5aR knock-in mice model. Type of assay: in vivo. Conditions: 0.3 mg/kg and 3 mg/kg, pre-dosed 2 hours before hC5a. How it is done: To study the efficacy of compounds in an animal model, human C5aR knock-in mice were created by replacing the coding region of mouse C5aR with human C5aR coding sequence. Intravenous injection of hC5a induced upregulation of adhesion molecules on blood vessel walls, leading to decreased neutrophils in the blood stream and attached to the vascular walls. Human C5aR knock-in mice were pre-dosed with vehicle or specific compound, and 2 hours later, human C5a ([…], ACROBiosystems) was administrated and 1 minute later neutrophils are quantified in peripheral blood.
The percent change in the number of neutrophils in the blood collected after C5a injection (121 min), relative to the sample collected prior to C5a injection (119 min). The plasma concentration of each compound is the average concentration prior to C5a injection of 3 individual mice.

T1 sequence (P21730 whole entry): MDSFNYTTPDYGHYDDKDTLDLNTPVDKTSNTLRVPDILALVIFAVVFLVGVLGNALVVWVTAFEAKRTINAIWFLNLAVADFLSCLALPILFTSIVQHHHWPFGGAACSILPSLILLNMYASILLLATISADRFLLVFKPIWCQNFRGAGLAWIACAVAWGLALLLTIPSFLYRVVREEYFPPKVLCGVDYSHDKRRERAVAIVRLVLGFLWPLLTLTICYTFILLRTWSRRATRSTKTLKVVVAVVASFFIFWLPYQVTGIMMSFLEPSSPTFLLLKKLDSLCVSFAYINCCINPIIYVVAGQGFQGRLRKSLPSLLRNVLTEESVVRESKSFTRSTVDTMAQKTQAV
Sequence of human C5a receptor (C5aR) (P21730 whole entry): as above

With `Cc1ccc(NC(=O)[C@H]2C[C@H]3CCC[C@H]3N(C(=O)c3c(C)cccc3F)[C@H]2c2ccc(NC3CCCC3)cc2)cc1C(F)(F)F` [Compound 47, (2R,3S,4aR,7aR)-2-(4-(cyclopentylamino)phenyl)-1-(2-fluoro-6-methylbenzoyl)-N-(4-methyl-3-(trifluoromethyl)phenyl)octahydro-1H-cyclopenta[b]pyridine-3-carboxamide], the results for the concentration for half-maximal inhibition (IC50) (on C5aR [1]; at C5aR [2]; in assay [6]) were below 50 nM, below 50 nM and 50 to 500 nM, respectively. In addition, the EC50 at 10 mg/kg in assay [3] was 276 nM. The “C5a induced CD11b upregulation on granulocytes ex-vivo” value in assay [3] is listed as “blocked”. Besides, the “CD11b upregulation on neutrophil” value in assay [4] (2 hours after dosing) is “blocked”. The “rescue of neutropenia induced by human C5a” value in assay [5] was “effectively rescued the neutropenia”.

`Cc1cccc(F)c1C(=O)N1[C@@H]2CCC[C@@H]2C[C@H](C(=O)Nc2ccc3c(cnn3C)c2)[C@@H]1c1ccc(NC2CCCC2)cc1` [Compound 49, (2R,3S,4aR,7aR)-2-(4-(cyclopentylamino)phenyl)-1-(2-fluoro-6-methylbenzoyl)-N-(1-methyl-1H-indazol-5-yl)octahydro-1H-cyclopenta[b]pyridine-3-carboxamide]: the IC50 was below 50 nM on C5aR [1], 500 to 2000 nM on C5aR [2] and below 50 nM in assay [6]. In assay [3], the EC50 at 10 mg/kg amounted to 256 nM. The “C5a induced CD11b upregulation on granulocytes ex-vivo” value in assay [3] is recorded as “blocked”. The “CD11b upregulation on neutrophil” value is on record as “blocked” in assay [4] (2 hours after dosing); “blocked” in assay [4] (2 hours and 12 hours post-dosing). Further, the “rescue of neutropenia induced by human C5a” value in assay [7] and in assay [5] was “effectively rescued the neutropenia” each time.

Regarding `Cc1cccc(F)c1C(=O)N1[C@@H]2CCC[C@@H]2C[C@H](C(=O)Nc2ccc3c(cnn3C)c2)[C@@H]1c1ccc(NC2CCOCC2)cc1` [Compound 89, (2R,3S,4aR,7aR)-1-(2-fluoro-6-methylbenzoyl)-N-(1-methyl-1H-indazol-5-yl)-2-(4-((tetrahydro-2H-pyran-4-yl)amino)phenyl)octahydro-1H-cyclopenta[b]pyridine-3-carboxamide], the figures for the half-maximal inhibitory concentration (IC50) (on C5aR [1]; on C5aR [2]; in assay [6]) were below 50 nM, 500 to 2000 nM and below 50 nM, respectively. The “CD11b upregulation on neutrophil” value in assay [4] (2 hours after dosing) is reported as “blocked”.

Consider `Cc1ccc(NC(=O)[C@H]2C[C@H]3COC[C@H]3N(C(=O)c3c(C)cccc3F)[C@H]2c2ccc(NC3CCCC3)cc2)cc1C(F)(F)F` [Compound 119, (2R,3S,4aR,7aS)-2-(4-(cyclopentylamino)phenyl)-1-(2-fluoro-6-methylbenzoyl)-N-(4-methyl-3-(trifluoromethyl)phenyl)octahydrofuro[3,4-b]pyridine-3-carboxamide], for which the figures for the IC50 (on C5aR [1]; on C5aR [2]; in assay [6]) were below 50 nM, 50 to 500 nM and below 50 nM, respectively.

On to `Cc1cccc(F)c1C(=O)N1[C@@H]2COC[C@@H]2C[C@H](C(=O)Nc2ccc(N(C)C)cc2)[C@@H]1c1ccc(NC2CCCC2)cc1` [Compound 124, (2R,3S,4aR,7aS)-2-(4-(cyclopentylamino)phenyl)-N-(4-(dimethylamino)phenyl)-1-(2-fluoro-6-methylbenzoyl)octahydrofuro[3,4-b]pyridine-3-carboxamide], for which the concentration for half-maximal inhibition (IC50) at C5aR [1] was in the range of 50 to 500 nM; at C5aR [2], 2000 to 10000 nM; in assay [6], 50 to 500 nM.

Consider `Cc1cccc(F)c1C(=O)N1[C@@H]2COC[C@@H]2C[C@H](C(=O)Nc2ccc3c(cnn3C)c2)[C@@H]1c1ccc(NC2CCCC2)cc1` [Compound 126, (2R,3S,4aR,7aS)-2-(4-(cyclopentylamino)phenyl)-1-(2-fluoro-6-methylbenzoyl)-N-(1-methyl-1H-indazol-5-yl)octahydrofuro[3,4-b]pyridine-3-carboxamide], for which the IC50 on C5aR [1] is below 50 nM; on C5aR [2], 2000 to 10000 nM; in assay [6] it was below 50 nM.

Consider `Cc1cccc(F)c1C(=O)N1[C@@H]2COC[C@@H]2C[C@H](C(=O)Nc2ccc3[nH]ncc3c2)[C@@H]1c1ccc(NC2CCCC2)cc1` [Compound 138, (2R,3S,4aR,7aS)-2-(4-(cyclopentylamino)phenyl)-1-(2-fluoro-6-methylbenzoyl)-N-(1H-indazol-5-yl)octahydrofuro[3,4-b]pyridine-3-carboxamide], for which the values for the 50% inhibitory concentration (IC50) (at C5aR [1]; at C5aR [2]; in assay [6]) were 500 to 2000 nM, 2000 to 10000 nM and 50 to 500 nM, respectively.

Consider `Cc1cccc(F)c1C(=O)N1[C@@H]2COC[C@@H]2C[C@H](C(=O)Nc2ccc3c(ccn3C)c2)[C@@H]1c1ccc(NC2CCCC2)cc1` [Compound 139, (2R,3S,4aR,7aS)-2-(4-(cyclopentylamino)phenyl)-1-(2-fluoro-6-methylbenzoyl)-N-(1-methyl-1H-indol-5-yl)octahydrofuro[3,4-b]pyridine-3-carboxamide], for which the IC50 on C5aR [1] was 50 to 500 nM; on C5aR [2], 2000 to 10000 nM; in assay [6], below 50 nM.

For `Cc1ccc(NC(=O)[C@H]2CCCN(c3ncnc4cnccc34)[C@H]2c2ccc(NC3CCCC3)cc2)cc1C(F)(F)F` [Compound 162, (2R,3S)-2-(4-(cyclopentylamino)phenyl)-N-(4-methyl-3-(trifluoromethyl)phenyl)-1-(pyrido[3,4-d]pyrimidin-4-yl)piperidine-3-carboxamide], the half-inhibitory concentration (IC50) on C5aR [1] was in the range of 500 to 2000 nM; on C5aR [2], 2000 to 10000 nM; in assay [6], 50 to 500 nM.

In the case of `Cc1cccc(F)c1C(=O)N1CCC[C@H](c2nc3ccc(C(C)(C)C)cc3[nH]2)[C@@H]1c1ccc(NC2CCCC2)cc1` [Compound 180, ((2R,3S)-3-(6-(tert-butyl)-1H-benzo[d]imidazol-2-yl)-2-(4-(cyclopentylamino)phenyl)piperidin-1-yl)(2-fluoro-6-methylphenyl)methanone], the values for the 50% inhibitory concentration (IC50) (on C5aR [1]; at C5aR [2]; in assay [6]) were below 50 nM, 2000 to 10000 nM and 2000 to 5000 nM, respectively.

What is called IC50 is the concentration that inhibits the measured activity by half. Broadly, the EC50 is the concentration giving half of the maximal effect.
